This note sets out measurements from patent US20240067685A1, “HIDDEN ANTIBIOTICS IN THE HUMAN PROTEOME” (priority 2022, published 2024).

The test system of data set [1] is P. aeruginosa wild-type PAO1. On the procedure: (§1) Antimicrobial activity. The antimicrobial activity of ApoB-derived encrypted peptides was assessed against a panel of skin pathogens, such as S. epidermidis ATCC 35984, S. aureus ATCC 12600, A. baumannii ATCC 17878, K. pneumoniae ATCC 700603, S. aureus MRSA (WK7-2), E. faecalis ATCC 29212 and P. aeruginosa PAO1 by using the broth microdilution method. ^20 Bacteria were grown to mid-logarithmic phase in MHB at 37° C. […] Following incubation over-night, each sample was diluted, plated on TSA, and incubated at 37° C. for 24 h to count the number of colonies. All experiments were performed in three independent replicates.

The next data set has as its system S. aureus MRSA (WKZ-2). On the procedure:
as §1

For data set [2], the system named is S. aureus ATCC 12600. Kind of data set: microbe, parasite or virus in culture. The settings on record: for MIC: ATCC 12600; for MIC values: conventional antimicrobial agents, Staphylococcus aureus ATCC 12600. As to the method: as §1
For data set [3], the system named is S. epidermidis ATCC 35984. As to the kind of experiment: microbe, parasite or virus in culture. The settings on record: for MIC: ATCC 35984; for MIC values: conventional antimicrobial agents, Staphylococcus epidermidis ATCC 35984. As to the method:
as §1

The next data set is described as follows: in vitro. As to conditions: 25% fetal bovine serum. As to the method: To determine its proteolytic stability, it was assessed whether (ri)-r(P)ApoBS^Pro was less susceptible to serum proteases compared to its parent peptide r(P)ApoBS^Pro.
Stability assay. The resistance to enzymatic degradation assay was performed according to the method described by Powell et al. ^72 Briefly, peptides at 2 mg mL^−1 were exposed to a solution of 25% fetal bovine serum in water. Aliquots were collected after 0.5, 1, 2, and 4 h and 10 μL of trifluoroacetic acid was added to them while the samples were on ice for 10 min. The enzymatic degradation of peptides was followed by reverse-phase high performance liquid chromatography coupled to mass spectrometry (RP-HPLC/ESI-MS). The percentage of remaining peptide was calculated by integrating the area under the curve related to the peptide at time point zero.
where AUCX is the area under the curve of the peak related to the peptide after t h (t=0.5, 1, 2, and 4 h), and AUC0 is the area under the curve of the peak related to the peptide at the beginning of the experiment. Three independent experimental replicates were performed, as previously described. ^73

For data set [4], the system named is S. epidermidis ATCC 35984. As to the kind of experiment: Bacterial resistance development assay (30 days). Type of data set: cell-based, Staphylococcus epidermidis. The settings on record: for change in MIC (resistance development): S. epidermidis, 30 days of treatment; for MIC: Staphylococcus epidermidis. As to the method:
(§2) Experiments were performed to assess whether prolonged exposure to ApoB-derived encrypted peptides led to the evolution of resistant phenotypes, since classical AMPs are known to be less likely to trigger bacterial resistance than standard antibiotics. ^41 The Gram-negative bacterial pathogen A. baumannii ATCC 17878, and the Gram-positives S. epidermidis ATCC 35984, and S. aureus ATCC 12600 were longitudinally treated with r(P)ApoBL^Pro, r(P)ApoBL^Ala, and r(P)ApoBS^Pro. Control sample groups were treated with the antibiotics colistin, gentamicin, and mupirocin, selected based on their distinct mechanisms of action, the former destabilizing the bacterial extracellular membrane and the latter acting on intracellular targets. […] A. baumannii resistance towards colistin increased by up to 8-fold, whereas S. epidermidis resistance to gentamicin and mupirocin increased by up to 16- and 8-fold, respectively (FIG. 3C). […] For example, both colistin-resistant A. baumannii ATCC 17878 and gentamicin-resistant S. epidermidis ATCC 35984 presented wrinkled borders (FIG. 2E) as opposed to the smooth colonies' characteristic of their morphology at the beginning of the experiment (FIG. 2E).
(§3) Bacterial resistance development assay. S. epidermidis ATCC 35984, S. aureus ATCC 12600 and A. baumannii ATCC 17878 bacterial strains were exposed to colistin, gentamicin, mupirocin, r(P)ApoBL^Pro, r(P)ApoBL^Ala or r(P)ApoBS^Pro. Once, we detected the MIC values for each peptide or antibiotic against the bacterial strains tested, we transferred bacterial cells that survived the exposure at a sub-inhibitory (MIC/2) concentration, and they were re-grown and re-exposed to the respective peptide or antibiotic. ^20 The treatment was repeated for 30 days. Strains that developed resistance to antibiotics presented higher MICs at subsequent passages and the cells from the last passage were isolated and stored for scanning electron microscopy analyses.

Data set [5] concerns A. baumannii ATCC 17878. Kind of data set: microbe, parasite or virus in culture. The settings on record: for MIC values: conventional antimicrobial agents, Acinetobacter baumannii ATCC 17878; for MIC: ATCC 17878. As to the method: as §1
In data set [6] the test system is K. pneumoniae ATCC 700603. Kind of data set: microbe, parasite or virus in culture. As to conditions: for MIC values: conventional antimicrobial agents, Klebsiella pneumoniae ATCC 700603; for MIC: ATCC 700603. As to the method: as §1
Data set [7] relates to A. baumannii ATCC 17878. Kind of data set: Bacterial resistance development assay (30 days). In kind it is cell-based, Acinetobacter baumannii. As to conditions: for change in MIC (resistance development): 30 days of treatment; for MIC: Acinetobacter baumannii. As to the method: as §2, §3
The next data set concerns E. faecalis ATCC 29212. On the procedure:
as §1

For data set [8], the system named is S. aureus ATCC 12600. As to the kind of experiment: Bacterial resistance development assay (30 days). In kind it is cell-based, Staphylococcus aureus. As to the method: as §2, §3

≈ marks a conversion by molar mass, not a printed value. Where “and” joins values, the source holds several entries; their conditions need not be identical. Identical values can stand only once. Non-standard residues stand in square brackets, D forms with d. Residues, ends and D or L forms follow the SMILES beside them. No end group written: not given here.

As for `CC[C@@H](C)[C@@H](NC(=O)[C@H]1CCCN1C(=O)[C@@H](CO)NC(=O)[C@H]1CCCN1C(=O)[C@@H](CCCCN)NC(=O)[C@@H](CCCNC(=N)N)NC(=O)[C@H]1CCCN1C(=O)[C@H](NC(=O)[C@@H](CCCCN)NC(=O)[C@@H](CC(C)C)NC(=O)[C@@H](CC(C)C)NC(=O)[C@@H](CO)NC(=O)CN)C(C)C)C(=O)N[C@@H](C(=O)N[C@H](Cc1ccccc1)C(=O)N[C@H](CCCCN)C(=O)N[C@H](CC(C)C)C(=O)N[C@H](CCCCN)C(=O)NCC(=O)N1CCC[C@@H]1C(=O)N[C@H](CCCCN)C(=O)N[C@H](CC(C)C)C(=O)N[C@H](C)C(=O)N[C@@H](C(=O)N[C@H](Cc1c[nH]cn1)C(=O)N1CCC[C@@H]1C(=O)O)C(C)C)[C@H](C)CC` [(ri)-r(P)ApoBS^Pro] (H-G[dS][dL][dL][dK][dV][dP][dR][dK][dP][dS][dP][dI][dI][dF][dK][dL][dK]G[dP][dK][dL][dA][dV][dH][dP]-OH; N-terminus and C-terminus assumed), the MIC worked out at 10 µM (≈ 28.2 µg/mL) in data set [1], 10 µM (≈ 28.2 µg/mL) against S. aureus MRSA (WKZ-2), 20 µM (≈ 56.4 µg/mL) against S. aureus ATCC 12600 [2] and 10 µM (≈ 28.2 µg/mL) in [3]. For the same molecule, the fraction remaining at 4 h, 2 mg mL^-1 in the data set “in vitro” (bovine) is approximately 50%.
Take Gentamicin: the “change in MIC (resistance development)” value in [4] was “up to 16 fold”; with A. baumannii ATCC 17878 [7] (A. baumannii) it was “did not change”. The MIC values came out at 1 µg/mL with S. aureus ATCC 12600 [2], 0.25 µg/mL in the data set with A. baumannii ATCC 17878 [5], 2 µg/mL in [3] and 0.5 µg/mL in data set [6].
For the molecule “PHVALKPGKLKFIIPSPKRPVKLLSGGNTLHLVSTTKT [r(P)ApoBL^Pro]”, the MIC in data set [1] amounted to 5 µM; against S. aureus MRSA (WKZ-2) it was 20 µM; against E. faecalis ATCC 29212 it was 20 µM; with S. aureus ATCC 12600 [2], 20 µM; with A. baumannii ATCC 17878 [5] it was 5 µM; in [3] it was 10 µM. In data set [6], this molecule came in with an MIC of 10 µM. The “stability in the presence of serum” value in “in vitro” is “degraded within minutes”.
For the molecule “PHVALKAGKLKFIIPSPKRPVKLLSGGNTLHLVSTTKT [r(P)ApoBL^Ala]”, the MIC worked out at 2.5 µM in data set [1]; 10 µM in the data set with S. aureus MRSA (WKZ-2); 10 µM with E. faecalis ATCC 29212; 20 µM against S. aureus ATCC 12600 [2]; 2.5 µM with A. baumannii ATCC 17878 [5]; 10 µM in [3]. For the same molecule, in [6], the MIC came out at 5 µM. For the same molecule, the “stability in the presence of serum” value in the data set “in vitro” is “degraded within minutes”.
In the case of `C/C(=C\C(=O)OCCCCCCCCC(=O)O)C[C@@H]1OC[C@H](C[C@@H]2O[C@H]2[C@@H](C)[C@H](C)O)[C@@H](O)[C@H]1O` [mupirocin], the “change in MIC (resistance development)” value in [4] is listed as “up to 8 fold”; in the data set on S. aureus ATCC 12600 [8] (prolonged treatment), 8 fold. Further, the MIC in data set [4] (ATCC35984, read-out: MIC after prolonged treatment) is 0.012 µg/mL and 0.024 µM; in data set [4] (ATCC35984, read-out: MIC at start of resistance study), 0.0015 µg/mL and 0.003 µM; in the data set with A. baumannii ATCC 17878 [7] (ATCC17878, read-out: MIC after 30 days of treatment), 400 µg/mL and 800 µM; with A. baumannii ATCC 17878 [7] (ATCC17878, read-out: MIC at start of resistance study), 100 µg/mL and 200 µM. Moreover, the MIC before increase against S. aureus ATCC 12600 [8] (before the increase) is 0.024 μg mL^−1 and 0.048 μmol L^−1. Also, the MIC after increase against S. aureus ATCC 12600 [8] (between days 15 and 21 of treatment) was 0.19 μg mL^−1 and 0.38 μmol L^−1.
In the case of Colistin, the “change in MIC (resistance development)” value was “No significant resistance development” in data set [4] and “up to 8 fold” in the data set on A. baumannii ATCC 17878 [7] (A. baumannii). For the same molecule, the MIC values against S. aureus ATCC 12600 [2] was 12.5 µg/mL; in the data set on A. baumannii ATCC 17878 [5] it was 3.12 µg/mL; in data set [3], 3.12 µg/mL; in data set [6], 3.12 µg/mL. The “MIC after 30 days of treatment” value was determined as 25 µg/mL in the data set with A. baumannii ATCC 17878 [7] (A. baumannii) and 21.6 µM in the data set with A. baumannii ATCC 17878 [7] (A. baumannii, listed as colistin). For the same molecule, the “MIC at start of resistance study” value against A. baumannii ATCC 17878 [7] (A. baumannii, before prolonged treatment) is 3.12 μg mL^−1 and 2.7 μmol L^−1.
